# Experimental data from patent US20030139578A1, “Antibodies specifically binding PDE8A and PDE8B” (Incyte Genomics, Inc., priority 1996, published 2003).
# Biological target: T1, PDE8A(E) (Homo sapiens, UniProt O60658)
# T1 construct: A 1.6 kb region of PDE8A(E) (the C-terminal 545 amino acids) was amplified and cloned into the baculovirus transfer vector pFASTBAC; made in house; host or cells: Sf9 insect cells (baculovirus, pFASTBAC)
# Assay: PDE activity assay, conversion of 3H-cAMP to 3H-adenosine by recombinant PDE8A(E)
# Assay type: biochemical
# Conditions: for inhibition of PDE8A(E) activity: 1% DMSO, 50 nM cAMP, FIG. 8
# Procedure: Recombinant virus stocks were prepared according to the manufacturer's protocol. Sf9 cells were cultured in Sf900 II Sfm serum free media (Invitrogen) at 27 C. For expression, 1×10^8 Sf9 cells were infected at a multiplicity of infection of 5 in a final volume of 50 mls. At three days post-infection, the cells were harvested, and enzyme-containing lysates were prepared as described below.
# PDE8A(E) to be used for assay was prepared from transfected Sf9 cells. Cells were harvested by centrifugation, resuspended in homogenization buffer (20 mM Tris-HCl, 2 mM benzamidine, 1 mM EDTA, 0.25 M sucrose, 100 uM PMSF, pH 7.5) at 1×10^7 cells/ml, and disrupted with 3×10 second pulses using a Sonifier Processor (Emerson Branson, Korea). Cellular debris was removed by centrifugation at 14,000×g for 10 minutes. The supernatant was stored at −70° C.
# PDE activity was assayed by measuring the conversion of ^3H-cAMP to ^3H-adenosine in the presence of PDE8A(E) and 5′ nucleotidase. […] The reaction was started by the addition of 25 ul of diluted enzyme supernatant. Reactions were run directly in mini Poly-Q scintillation vials (BeckmanCoulter, Fullerton Calif.). […] The reaction was stopped by the addition of 1 ml of Dowex AG1×8 (C1 form) resin (1:3 slurry). Three ml of scintillation fluid were added, the contents of the vials were mixed, and the resin in the vials was allowed to settle for 1 hr before counting. Soluble radioactivity associated with ^3H-adenosine was quantitated using a Beta scintillation counter. The amount of radioactivity recovered is proportional to the activity of PDE8 in the reaction. For inhibitor studies (FIG. 8), all reactions contained 1% DMSO, 50 nM cAMP, and the indicated inhibitor concentrations. The control vial contained all reagents minus the enzyme aliquot.
# T1 sequence (O60658 285-829 limits assumed): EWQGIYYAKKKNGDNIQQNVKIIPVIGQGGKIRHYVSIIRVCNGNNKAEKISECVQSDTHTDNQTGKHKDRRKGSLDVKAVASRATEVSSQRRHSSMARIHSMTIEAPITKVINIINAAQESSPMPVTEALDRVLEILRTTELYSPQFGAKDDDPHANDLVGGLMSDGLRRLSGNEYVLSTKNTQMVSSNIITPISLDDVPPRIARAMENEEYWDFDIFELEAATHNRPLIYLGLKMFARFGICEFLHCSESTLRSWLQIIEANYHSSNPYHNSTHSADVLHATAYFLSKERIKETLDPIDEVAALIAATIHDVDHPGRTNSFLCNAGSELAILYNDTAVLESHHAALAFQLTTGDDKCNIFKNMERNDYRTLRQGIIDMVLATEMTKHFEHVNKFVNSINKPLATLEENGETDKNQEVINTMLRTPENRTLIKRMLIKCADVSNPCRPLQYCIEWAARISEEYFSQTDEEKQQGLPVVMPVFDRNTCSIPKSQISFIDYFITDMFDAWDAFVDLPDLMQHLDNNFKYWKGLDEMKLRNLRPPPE
Structure (SMILES),IC50 [µM],inhibition of PDE8A(E) activity
OCCN(CCO)c1nc(N2CCCCC2)c2nc(N(CCO)CCO)nc(N3CCCCC3)c2n1 [dipyridamole],9,
CC(=O)Nc1ccc(-c2c[nH]c(=O)cn2)cc1 [SKF94120],,not inhibited
COc1ccc(C2CNC(=O)C2)cc1OC1CCCC1 (stereo not drawn) [rolipram],,not inhibited
CCOC(=O)C1=C[C@]2(CC)CCCN3CCc4c(n1c1ccccc41)[C@@H]32 [vinpocetine],,not inhibited
CC(C)Cn1c(=O)n(C)c(=O)c2[nH]cnc21 [IBMX],,not inhibited
CCCOc1ccccc1-c1nc2nn[nH]c2c(=O)[nH]1 [zaprinast],,not inhibited
